Test [1] has as its system EAE model. The following applies: 10 mg/kg starting at the time of immunization; cited from earlier work.
Test [2] deals with T1, kappa opioid receptor (KOR) (Mus musculus, UniProt P33534).
T1 construct: from tissue; host or cells: whole animal: female C57BL/6 mice (EAE model)
The test can be described thus: EAE with KOR antagonist norBNI. In kind it is in vivo, female C57BL/6 mice.

Test [3] can be described thus: EAE-induced weight loss. Format: in vivo, female C57BL/6 mice. Conditions: 0.3, 0.1 or 0.03 mg/kg i.p. daily from day 17.
Test [4] concerns infiltrating immune cells (CD45high) in the brain. Briefly: Immune cell infiltration into the brain in EAE (flow cytometry). In kind it is in vivo, female C57BL/6 mice. (In general: In flow cytometry, cells or beads pass a laser one at a time.)
The subject of test [5] is myelin in spinal cord of EAE mice. The test can be described thus: TEM of spinal cord sections in EAE. In kind it is in vivo, female C57BL/6 mice. Conditions: 0.03 mg/kg i.p. daily from day 17; day 45.
A short description of test [6]: Weight change in cuprizone model of demyelination. In kind it is in vivo, female C57BL/6 mice.
For test [7], the system named is cuprizone model of demyelination. The test can be described thus: Rotarod assay in cuprizone model of demyelination. Format: in vivo, female C57BL/6 mice. The following applies: 0.1 mg/kg i.p. daily from week 4. On the technique in general: The rotarod test checks motor coordination on a turning rod.
Test [8] relates to myelin in corpus callosum of cuprizone-treated mice. Briefly: TEM of corpus callosum in cuprizone model (g-ratio, myelinated axons, myelin area). In kind it is in vivo, female C57BL/6 mice.
The test system of test [9] is myelin in spinal cord of EAE mice. Briefly: Luxol fast blue staining of spinal cord in EAE. In kind it is in vivo, female C57BL/6 mice. The following applies: chronic phase.
In test [10] the test system is lymphocyte populations in the spleen. Briefly: Splenocyte flow cytometry in chronic phase of EAE. The following applies: 0.01 mg/kg i.p. daily from disease onset; 27 days post treatment initiation. In kind it is in vivo, female C57BL/6 mice.
Test [11] relates to leucocyte infiltration into the spinal cord. The test can be described thus: H&E staining of spinal cord for leucocyte infiltration in EAE. In kind it is in vivo, female C57BL/6 mice. The following applies: 0.01 mg/kg i.p. daily from disease onset; chronic phase.
The subject of test [12] is activated GFAP+ astrocytes in the spinal cord. The test can be described thus: GFAP immunohistochemistry of spinal cord in EAE. In kind it is in vivo, female C57BL/6 mice. The following applies: 0.01 mg/kg i.p. daily from day 17; day 45.
In test [13] the test system is cuprizone demyelination disease model of MS. The test can be described thus: von Frey mechanical withdrawal threshold in cuprizone model. Format: in vivo, female C57BL/6 mice. The following applies: 0.1 mg/kg/i.p. daily from day 28 or 35.
In test [14] the test system is Substance P induced scratch. Conditions: cited from earlier work.
Test [15] deals with Morphine induced scratch. Conditions: SC; Winfuran assessment report EMA/CHMP/138212/2014; cited from earlier work.
For test [16], the system named is Histamine induced scratch. The following applies: PO; Togashi et al. (2002); cited from earlier work.
The subject of test [17] is itch. The following applies: in vivo; cited from earlier work.
Setting [18] is: norBNI 10 mg/kg i.p. weekly with nalfurafine 0.01 mg/kg i.p. daily.
[19] abbreviates: 0.1 mg/kg/i.p. daily from day 28, day 70.
The mark [20] stands for this setting: nalfurafine 0.1 mg/kg/i.p. or U-50488 1.6 mg/kg/i.p. daily from day 28, day 70.

Counter-ions that a name gives are not always drawn. Like-named read-outs stand apart in the source and are kept apart here.

T1 sequence (P33534 whole entry): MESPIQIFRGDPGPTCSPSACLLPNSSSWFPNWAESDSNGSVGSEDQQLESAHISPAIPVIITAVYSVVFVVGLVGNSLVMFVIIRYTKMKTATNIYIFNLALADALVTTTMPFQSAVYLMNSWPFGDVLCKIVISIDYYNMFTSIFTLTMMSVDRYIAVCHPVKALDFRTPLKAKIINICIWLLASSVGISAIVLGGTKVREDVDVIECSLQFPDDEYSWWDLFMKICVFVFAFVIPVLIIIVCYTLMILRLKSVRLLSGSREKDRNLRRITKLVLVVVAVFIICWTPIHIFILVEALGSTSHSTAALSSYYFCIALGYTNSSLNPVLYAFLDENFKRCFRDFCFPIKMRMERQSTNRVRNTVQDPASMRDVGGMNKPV

With `CN1CCC[C@@H]1CCO[C@](C)(c1ccccc1)c1ccc(Cl)cc1` [clemastine fumarate], in [1], the “chronic disability in the EAE model” value is “has been shown to reduce chronic disability in the EAE model”.

As for `Oc1ccc2c3c1O[C@H]1c4[nH]c5c(c4C[C@@]4(O)[C@@H](C2)N(CC2CC2)CC[C@]314)C[C@@]1(O)[C@H]2Cc3ccc(O)c4c3[C@@]1(CCN2CC1CC1)[C@H]5O4` [norBNI], in test [2] (setting [18]), the “disease score, full recovery (score <0.5)” value was “abolishes the ability of nalfurafine to enable full recovery from paralysis”; the “percentage recovered and number of days in recovery” value is “abolishes the ability of nalfurafine to enable and sustain recovery from paralysis”.

As to `CN(C(=O)/C=C/c1ccoc1)[C@@H]1CC[C@@]2(O)[C@H]3Cc4ccc(O)c5c4[C@@]2(CCN3CC2CC2)[C@H]1O5` [nalfurafine, (E)-N-[(4R,4aS,7R,7aR,12bS)-3-(cyclopropylmethyl)-4a,9-dihydroxy-1,2,4,5,6,7,7a,13-octahydro-4,12-methanobenzofuro[3,2-e]isoquinoline-7-yl]-3-(furan-3-yl)-N-methylprop-2-enamide], the “% change in body weight” value in test [3] is listed as “mice recover from EAE-induced weight loss”. The “number of infiltrating immune cells in brain (ratio to microglia)” value is recorded as “significantly reduced the number of infiltrating immune cells” in [4] (0.03 mg/kg i.p. daily from day 17, day 45); “significantly reduced the number of infiltrating immune cells” in test [4] (0.03 and 0.01 mg/kg i.p. daily from disease onset, chronic phase (>24 days)). The “myelination of nerve axons in spinal cord (TEM)” value in [5] was “nerve axons appear healthy and well-myelinated”. Further, the “% weight change” value in test [6] (0.3% cuprizone 5 weeks, 0.1 mg/kg i.p. daily from week 4, 65 days (Example 7)) was “reversed significantly more effectively by administration of nalfurafine than vehicle alone”. Further, the “% weight change in recovery phase” value in test [6] (0.3% cuprizone 35 days, nalfurafine 0.1 mg/kg or U-50488 1.6 mg/kg i.p. daily from day 28 (Example 28)) is recorded as “enhances recovery of the lost weight faster”. In addition, in test [7], the “rotarod performance at week 9 relative to week 5” value is listed as “Cuprizone-induced disability was reversed”. Also, the “myelin in corpus callosum (TEM)” value in test [8] (0.1 mg/kg i.p. daily from week 4, day 65 (Example 9)) was “more myelin was detected, and the structure was less disorganized”. In addition, the area of myelination result in [8] (setting [19]) is on record as “percentage increase in area of myelination”. The “number of myelinated axons” value in [8] (setting [19]) is on record as “percentage increase in the number of myelinated axons”. The “axonal-myelin ultrastructure, repair” value in test [8] (setting [20]) is given as “surprisingly similar to that of the naïve (normal) tissue”. In addition, the mean g-ratio in [8] (setting [20]) is reported as 0.75±0.15. The “lesion load and myelin density in ventral horn (luxol fast blue)” value in test [9] (0.01 mg/kg i.p. daily from disease onset) is “reduces this lesion load and demyelination”. For the same compound, the “% demyelination of spinal cord (luxol fast blue)” value in test [9] (0.03 or 0.01 mg/kg i.p. daily from disease onset) is “significant reduction in the percentage of demyelination”. Besides, in [10], the “Teff:cm ratio (effector to central memory CD4 T cells)” value is given as “reduced ratio in the nalfurafine-treated compared to the vehicle-treated mice”. Besides, the “overall number of CD4 T cells in spleen” value in test [10] is “the same between nalfurafine and vehicle treated mice”. Also, the “proportion of major lymphocyte populations in spleen (% live leukocytes)” value in test [10] was “do not alter the proportion of the major lymphocyte populations in the spleen”. In addition, the “disease reduction in the presence of norBNI” value in [2] (nalfurafine 0.01 mg/kg i.p. daily with norBNI 10 mg/kg i.p. weekly) is reported as “effective at reducing disease independently of the KOR”. Besides, the “leucocyte infiltration score (0-3), H&E” value in test [11] is on record as “surprising reduction of infiltrating leucocytes”. In addition, in test [12], the “number of activated GFAP+ astrocytes per section” value was “significantly reduces the number of activated astrocytes”. For the same compound, the “mechanical threshold scores vs vehicle” value in [13] is “improved mechanical threshold scores compared to vehicle treated mice”. In addition, the “mechanical withdrawal threshold, pre vs post treatment” value in test [13] is reported as “reduced to baseline levels”. In addition, the “Complete Inhibition” value in test [14] (IV, Winfuran assessment report EMA/CHMP/138212/2014) was 7.5-10^ μg/kg; in test [14] (PO, Togashi et al. (2002)), 100 µg/kg; in test [14] (PO, Winfuran assessment report EMA/CHMP/138212/2014), 100 µg/kg; in test [14] (SC, Winfuran assessment report EMA/CHMP/138212/2014) it was 10 µg/kg; in test [15], 5 to 10 µg/kg. Further, the “Inhibition printed in brackets beside the dose” value in test [14] (PO, 100 μg/kg, Winfuran assessment report EMA/CHMP/138212/2014) was 66%. Besides, the ED50 in test [16] is 7.3 µg/kg. Further, the “effective dose in humans for itch” value in [17] was 2.5 μg/body/day.

The term ED50 denotes the midpoint of the dose-response relation.

Values taken from patent publication US12318380B2, “Treatment of demyelinating diseases” (priority 2018, dated 2025).
